Source: paper PMC9130998, “Paclitaxel binds and activates C5aR1: A new potential therapeutic target for the prevention of chemotherapy-induced peripheral neuropathy and hypersensitivity reactions” (Cell Death & Disease, 2022)

Target: T1, complement component 5a receptor 1 (C5aR1) (Homo sapiens, UniProt P21730)
T1 construct: recombinant human C5aR1 with a C-terminal c-Myc tag
T1 sequence (P21730 1-350): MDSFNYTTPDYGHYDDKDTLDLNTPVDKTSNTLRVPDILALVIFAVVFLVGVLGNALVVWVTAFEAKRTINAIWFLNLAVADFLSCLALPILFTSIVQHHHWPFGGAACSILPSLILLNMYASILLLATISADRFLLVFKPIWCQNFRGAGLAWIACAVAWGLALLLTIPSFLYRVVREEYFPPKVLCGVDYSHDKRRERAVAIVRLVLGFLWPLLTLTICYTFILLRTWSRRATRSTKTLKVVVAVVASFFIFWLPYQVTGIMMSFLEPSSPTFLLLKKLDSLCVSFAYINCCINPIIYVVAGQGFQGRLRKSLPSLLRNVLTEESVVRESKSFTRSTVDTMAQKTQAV
Assay: SPR (BIAcore X100) on immobilized receptor, dose-dependent
Format: binding

CC(=O)O[C@@]12CO[C@@H]1C[C@H](O)[C@@]1(C)C(=O)[C@H](O)C3=C(C)[C@@H](OC(=O)[C@H](O)[C@@H](NC(=O)OC(C)(C)C)c4ccccc4)C[C@@](O)([C@@H](OC(=O)c4ccccc4)[C@H]21)C3(C)C [docetaxel]
SPR (BIAcore X100) on immobilized receptor, dose-dependent: similarly to paclitaxel, also docetaxel can bind C5aR1 receptor in a dose dependent way (Fig. S2A–D)
